System: HFD-fed C57BL/6 mice
Assay: Metabolic profile of HFD-fed mice (diet-induced obesity)
Assay type: in vivo
Settings: for non-fasting blood glucose level: 50 mg/kg 3 times a week
Procedure: FIG. 12 indicates the improvement of the metabolic profile of HFD-feed mice by MSL-7: (FIG. 12A) Confocal microscopic result of HeLa cells transfected with tandem mRFP-GFP-LC3 and treated with MSL-7 in which red puncta indicates autophagolysosome. (FIG. 12B, 12C) 8 week old male C57BL/6 mice were fed with HFD or normal chow diet (NCD) for 8 weeks, and then 50 mg/kg MSL-7 was administered three times a week for 8 weeks. Non-fasting glucose level (FIG. 12B) and body weight (FIG. 12C) were monitored. (FIG. 12D) IPGTT. (FIG. 12E) AUC curve of (FIG. 12D). (FIG. 12F) ITT. (FIG. 12G) AUC curve of (FIG. 12F).
Screening of autophagy enhancer. […] Luciferase assay. Firefly and Renilla luciferase assays were conducted using the Dual-Luciferase Reporter Assay System (Promega) according to the manufacturer's recommendation. In brief, cells were lysed in 1× lysis buffer and subjected to a single round of freezing/thawing. Firefly luciferase was determined after mixing 5 μl of lysate with 25 μl of Luciferase Assay Reagent II. Renilla luciferase was then determined after further addition of 20 ul of Stop&Glo Reagent. Cell culture and media and drugs treatment. HeLa, TFEB-GFP-HeLa, SK-HEP1 (hepatoma cell line) and Hepa1c1c7 (hepatoma cell line) cells were cultured in the following media: (normal) Dulbecco's modified Eagle's medium (DMEM, Sigma-Aldrich) supplemented with 10% FBS and 1% penicillin/streptomycin; (starvation) HBSS media with Ca and Mg supplemented with 10 mM HEPES; Drugs treatment: MSL compound (50-100 μM); Rapamycin ([…]); Torin-1 (1 μM); Bafilomycin (100 nM); Cyclosporin A (10 μM); and FK506 (5 μM). Cells were treated with oleic acid (400 μM) and palmitic acid (400 μM) for 24 h. Where indicated, cells were washed off with HBSS and replaced by DMEM with or without MSL for 16 h. INS-1 cells, a insulinoma cell line of […] were cultured as described previously (Kim et al., 2014 ibid) in the presence or absence of bafilomycin and treated with MSL-7. Lactate dehydrogenase (LDH) assay. Cytotoxicity was determined by the measurement of LDH release in cell culture media using the LDH kit (Roche), according to the protocol from the manufacturer. Transfection and plasmids. Cells were transiently transfected with DNA plasmids 3×FLAG-hTFEB (A Ballabio), FYVE-dsRed (Cantley LC), RFP-LC3 or mRFP-GFP-LC3 using lipofectamine 2000 (Invitrogen) according to the protocol from the manufacturer. INS-1 cells were transfected with prepro-mIAPP-HA or prepro-hIAPP-HA using jetPEIDNA according to the manufacturer's protocol. Imaging and image quantification. Imaging was performed with a ×40 objective on an LSM780 confocal microscope (Zeiss). Image analysis (spot count per cell) was performed using Image J. When indicated, cells were stained for lipid droplets with BODIPY 493/503 (Invitrogen, […], 20 min) according to the manufacturer's methods. Formation of acidic vesicular organelles was quantitated by staining the cells with acridine orange (Invitrogen, 5 ug/ml, 10 min). Antibodies and western blotting. Cells or tissues were solubilized in lysis buffer supplemented with protease and phosphatase inhibitors and protein concentration was measured by the Bradford method. Ten to 30 micrograms were loaded on 4-12% Bis-Tris gel (NUPAGE, Invitrogen) or 8-15% SDS-PAGE, transferred to PVDF membranes and analyzed by western blot using the ECL method (Pierce). The following antibodies were used: LC3 (Novus NB100-2331, 1:1,000), p62 (Progen GP62-C, 1:1,000), b-actin (Santa Cruz sc-47778, 1:5,000), FLAG (Sigma-Aldrich F1804, 1:2,000), 70S6K (Cell Signaling 9202S, 1:1000), p-70S6K (Cell Signaling 9206S, 1:1000), mTOR (Cell Signaling 2983, 1:1000), pmTOR (Cell Signaling 2971S, 1:1000), TFEB (Cell Signaling 4240, 1:1000). Protein levels were quantified by using ImageJ software analysis. RNA extraction, RT and real-time RT-PCR. […]

Row | SMILES | non-fasting blood glucose level (HFD, 8 weeks) | glucose tolerance / glucose intolerance (IPGTT) (HFD, 8 weeks) | area under the curves (AUCs) of IPGTT and ITT (HFD, 8 weeks) | body weight (HFD, 8 weeks) | insulin sensitivity (ITT) (HFD, 8 weeks) | glucose profile of lean or chow-fed mice (lean or chow-fed mice)
1 | CSc1oc(-c2ccccc2)nc1S(=O)(=O)c1ccc(F)cc1 [MSL] | reduced non-fasting blood glucose level and glucose intolerance in mice fed high-fat diet (HFD). however, statistical significance was not achieved for most comparisons | reduced non-fasting blood glucose level and glucose intolerance in mice fed high-fat diet (HFD). however, statistical significance was not achieved for most comparisons |  |  |  | 
2 | COc1oc(-c2ccccc2Cl)nc1S(=O)(=O)c1ccccc1 [MSL-7, 2-(2-chlorophenyl)-5-methoxy-4-(phenylsulfonyl) oxazole] | significantly reduced | significantly improved | reduced | without changing the body weight | significantly improved | does not affect

Source: patent US10881642B2, “Autophagy enhancer and use thereof” (Industry-Academic Cooperation Foundation, Yonsei University, priority 2016, dated 2021)
